Measured values: the NIST ThermoML archive (doi:10.1021/je200673a)

Assay: molar heat capacity at constant pressure
Settings: 101.33 kPa, Vacuum adiabatic calorimetry

C(#Cc1ccccc1)c1ccccc1 [1,2-diphenylethyne]
molar heat capacity at constant pressure [J/K/mol]
Settings	Crystal	Liquid
122.93 K	102.01	–
123.75 K	102.53	–
124.57 K	103.09	–
125.39 K	103.65	–
126.22 K	103.97	–
127.04 K	104.54	–
127.87 K	104.88	–
128.69 K	105.58	–
129.52 K	106.14	–
130 K	106.33	–
130.34 K	106.59	–
131.19 K	107.21	–
132.02 K	107.62	–
132.85 K	107.99	–
133.68 K	108.55	–
134.51 K	108.88	–
135.34 K	109.34	–
136.17 K	110.18	–
137.01 K	110.88	–
137.84 K	111.19	–
138.67 K	111.61	–
139.51 K	112.13	–
140 K	112.5	–
140.35 K	112.75	–
141.18 K	113.14	–
142.02 K	113.86	–
142.86 K	114.26	–
143.7 K	114.81	–
144.56 K	115.47	–
145.4 K	115.88	–
146.24 K	116.41	–
147.08 K	117.03	–
147.93 K	117.53	–
148.77 K	118.01	–
149.61 K	118.61	–
150 K	118.79	–
150.46 K	119.09	–
151.31 K	119.49	–
152.15 K	120.1	–
153 K	120.73	–
153.85 K	121.21	–
154.7 K	121.63	–
155.55 K	122.47	–
156.4 K	122.86	–
157.25 K	123.14	–
158.14 K	124.01	–
158.99 K	124.43	–
159.85 K	125.3	–
160 K	125.14	–
160.7 K	125.66	–
161.56 K	125.9	–
162.42 K	126.63	–
163.28 K	127.28	–
164.14 K	127.86	–
165 K	128.31	–
165.86 K	128.78	–
166.72 K	129.29	–
167.58 K	130.02	–
168.45 K	130.59	–
169.31 K	131.32	–
170 K	131.53	–
170.18 K	131.71	–
171.05 K	132.15	–
171.96 K	132.79	–
172.83 K	133.42	–
173.7 K	133.85	–
174.57 K	134.6	–
175.44 K	135.11	–
176.31 K	135.5	–
177.19 K	135.99	–
178.06 K	136.73	–
178.94 K	137.42	–
179.82 K	137.82	–
180 K	138	–
180.7 K	138.43	–
181.58 K	138.91	–
182.46 K	139.54	–
183.34 K	140.11	–
184.22 K	140.8	–
185.11 K	141.42	–
186.05 K	142.12	–
186.93 K	142.62	–
187.82 K	143.19	–
188.71 K	143.74	–
189.6 K	144.35	–
190 K	144.57	–
190.5 K	144.84	–
191.39 K	145.31	–
192.29 K	146.01	–
193.18 K	146.68	–
194.08 K	147.37	–
194.98 K	147.95	–
196.78 K	149.26	–
197.68 K	149.46	–
198.59 K	150.29	–
199.5 K	151.03	–
200 K	151.06	–
200.7 K	151.27	–
202.04 K	151.99	–
203.39 K	152.98	–
204.73 K	154.54	–
206.08 K	154.9	–
207.42 K	155.84	–
208.77 K	156.73	–
210 K	157.57	–
210.11 K	157.51	–
211.46 K	158.55	–
212.8 K	159.5	–
214.14 K	160.32	–
215.49 K	161.29	–
216.83 K	162.37	–
218.17 K	163	–
219.51 K	164.34	–
220 K	164.63	–
220.86 K	165.39	–
222.28 K	166.49	–
223.62 K	167.21	–
224.96 K	168.09	–
226.3 K	169.06	–
227.64 K	170.12	–
228.97 K	171	–
230 K	171.85	–
230.31 K	171.96	–
231.65 K	173.01	–
232.99 K	173.91	–
234.32 K	174.98	–
235.65 K	175.95	–
236.99 K	176.85	–
238.33 K	177.98	–
239.66 K	179.01	–
240 K	179.11	–
240.99 K	179.99	–
242.32 K	180.88	–
243.73 K	181.99	–
245.07 K	182.85	–
246.4 K	183.79	–
247.73 K	184.64	–
249.06 K	185.75	–
250 K	186.45	–
250.39 K	185.54	–
251.71 K	187.74	–
253.03 K	188.91	–
254.36 K	189.53	–
255.68 K	190.6	–
257 K	191.87	–
258.32 K	192.68	–
259.65 K	193.82	–
260 K	193.93	–
260.97 K	194.81	–
262.28 K	195.65	–
263.6 K	197.01	–
264.98 K	198.01	–
266.3 K	198.7	–
267.61 K	199.72	–
268.93 K	200.72	–
270 K	201.56	–
270.24 K	201.85	–
271.55 K	202.64	–
272.86 K	203.72	–
274.17 K	204.75	–
275.47 K	205.78	–
276.77 K	206.87	–
278.07 K	207.63	–
279.37 K	208.98	–
280 K	209.29	–
280.67 K	209.89	–
281.97 K	210.65	–
283.26 K	211.51	–
284.56 K	212.46	–
285.9 K	213.85	–
287.2 K	214.7	–
288.49 K	216.02	–
289.78 K	216.96	–
290 K	216.99	–
291.06 K	217.78	–
292.34 K	219.03	–
293.62 K	219.44	–
294.9 K	220.27	–
296.17 K	221.66	–
297.45 K	223.35	–
298.15 K	223.14	–
298.72 K	223.61	–
299.98 K	224.36	–
300 K	224.51	–
301.47 K	225.51	–
303.12 K	227.1	–
304.78 K	228.38	–
306.45 K	228.99	–
308.12 K	230.51	–
309.79 K	231.08	–
310 K	231.76	–
311.46 K	232.91	–
313.14 K	234.02	–
314.83 K	234.92	–
316.52 K	236.14	–
318.22 K	238.29	–
319.93 K	238.52	–
320 K	238.87	–
321.63 K	240.17	–
323.34 K	241.21	–
325.06 K	242.48	–
330 K	245.96	–
332.03 K	247.4	302
340 K	–	303.79
348.64 K	–	304.58
348.68 K	–	305.37
350 K	–	306.04
350.47 K	–	306.11
350.59 K	–	307.42
352.28 K	–	307.07
352.61 K	–	306.03
354.1 K	–	304.34
354.59 K	–	307.75
355.9 K	–	307.73
356.6 K	–	308.43
357.73 K	–	308.85
358.63 K	–	305.76
359.56 K	–	309.14
360 K	–	308.41
360.65 K	–	308.73
361.57 K	–	306.43
362.7 K	–	310.22
363.41 K	–	309.69
364.77 K	–	310.47
365.26 K	–	310.84
367.13 K	–	305.78
367.19 K	–	311.76
369.03 K	–	310.48
369.32 K	–	308.58
370 K	–	309.93
370.91 K	–	308.47
371.44 K	–	311.8
